Test results published in US20100016285A1, “HETEROCYCLIDENE-N-(ARYL) ACETAMIDE DERIVATIVE” (MOCHIDA PHARMACEUTICAL CO., LTD., priority 2007, published 2010).

Target: T1, human TRPV1 (Homo sapiens, UniProt Q8NER1)
T1 construct: expressed in transfected cells; host or cells: CHO-K1 cells, pCAGGS vector, clones selected by limiting dilution
Test: Capsaicin-induced Ca influx in transformed CHO cells, FDSS-6000 (b-1), A2 value
Format: cell-based
Conditions: concentration shifting the capsaicin concentration-reaction curve two times rightward; CHO cells expressing TRPV1
Source text: (1) Measurement of Capsaicin-Induced Ca Influx in a Transformed CHO Cell Line Expressing Human TRPV1
(a) Establishment of a Transformed CHO Cell Line Expressing Human and Rat TRPV1
Human and rat vanilloid receptor 1 (hTRPV1 and rTRPV1) cDNA was cloned from human brain and rat dorsal root ganglion, respectively. The cloned TRPV1 cDNA was incorporated in a pCAGGS vector. The vector was introduced to a CHO-K1 cell line, thus performing transformation. Clones obtained by limiting dilution were stimulated with capsaicin. Clones with a high responsiveness were selected using an increase in the Ca concentration as an indicator. The selected clones were used for the following experiment.
(b-1) Measurement of Ca Influx using FDSS-6000
The transformed CHO cells expressing human or rat TRPV1 were seeded in a 96-well plate (with black walls and transparent bottoms, manufactured by Greiner) at a density of 40,000 cells per well. The cells were cultured at 37° C. in 5% CO2 atmosphere for one night. A loading solution of FLIPR Calcium 3 assay kit (manufactured by Molecular Devices Corporation) containing 2.5 mmol/L of probenecid was then added to each of the wells in the same amount as the culture medium, and the cells were cultured at 37° C. for 60 minutes. For three minutes after the cells were stimulated with capsaicin (1 nmol/L to 1 μmol/L), the change of the intracellular Ca concentration was measured using FDSS-6000 (λex: 480 nm, λem: […], manufactured by Hamamatsu Photonics K.K.). The integrated values of the increase rate of the intracellular Ca concentration were calculated for a group treated with the compounds of the present invention and a group treated with a vehicle, thus allowing capsaicin concentration-reaction curves to be obtained. A concentration (A2 value) of each of the compounds of the present invention, at which the capsaicin concentration-reaction curve obtained when the cells were treated with the vehicle was shifted two times rightward, was calculated. The inhibitory effects of the test compounds were compared using this value as an indicator.

T1 sequence (Q8NER1 whole entry): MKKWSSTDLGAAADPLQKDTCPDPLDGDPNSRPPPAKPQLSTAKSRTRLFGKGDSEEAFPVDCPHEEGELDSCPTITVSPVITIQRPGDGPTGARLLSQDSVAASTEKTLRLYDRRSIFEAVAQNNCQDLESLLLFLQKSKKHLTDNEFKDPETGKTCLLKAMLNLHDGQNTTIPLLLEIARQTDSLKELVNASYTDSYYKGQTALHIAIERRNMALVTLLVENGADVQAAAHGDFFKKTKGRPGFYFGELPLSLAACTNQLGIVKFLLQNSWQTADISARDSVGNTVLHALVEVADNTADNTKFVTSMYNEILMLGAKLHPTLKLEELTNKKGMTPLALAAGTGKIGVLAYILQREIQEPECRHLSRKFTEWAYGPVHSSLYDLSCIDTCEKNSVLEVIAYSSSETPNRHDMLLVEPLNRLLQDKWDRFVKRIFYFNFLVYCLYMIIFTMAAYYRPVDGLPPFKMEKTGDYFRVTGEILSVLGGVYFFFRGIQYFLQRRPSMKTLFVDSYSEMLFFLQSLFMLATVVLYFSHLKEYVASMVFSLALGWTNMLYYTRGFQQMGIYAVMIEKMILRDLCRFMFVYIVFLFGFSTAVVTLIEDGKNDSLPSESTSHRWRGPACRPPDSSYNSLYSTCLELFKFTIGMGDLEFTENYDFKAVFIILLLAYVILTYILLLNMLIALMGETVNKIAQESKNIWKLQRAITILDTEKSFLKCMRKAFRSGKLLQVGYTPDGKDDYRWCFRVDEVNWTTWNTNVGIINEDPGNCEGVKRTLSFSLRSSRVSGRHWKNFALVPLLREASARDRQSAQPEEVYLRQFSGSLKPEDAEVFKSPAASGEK

CN1CC(=O)Nc2cc(NC(=O)/C=C3\CCCOc4cc(C(F)(F)F)ccc43)ccc21 [EXAMPLE 8, (E)-2-(8-trifluoromethyl-3,4-dihydrobenzo[b]oxepin-5 (2H)-ylidene)-N-(4-methyl-3,4-dihydro-2(1H)-quinoxalinon-7-yl)acetamide]
A2 value: A (A2 value of less than 100 nM)

O=C(/C=C1\CCCOc2cc(C(F)(F)F)ccc21)Nc1ccc2c(c1)NC(=O)C(CO)N2 (centres unmarked) [EXAMPLE 9, (E)-2-(8-trifluoromethyl-3,4-dihydrobenzo[b]oxepin-5(2H)-ylidene)-N-(3-hydroxymethyl-3,4-dihydro-2(1H)-quinoxalinon-7-yl)acetamide]
A2 value: A (A2 value of less than 100 nM)

CN1c2ccc(NC(=O)/C=C3\CCCOc4cc(C(F)(F)F)ccc43)cc2NC(=O)C1(C)C [EXAMPLE 11, (E)-2-(8-trifluoromethyl-3,4-dihydrobenzo[b]oxepin-5(2H)-ylidene)-N-(3,3-dimethyl-4-methyl-3,4-dihydro-2(1H)-quinoxalinon-7-yl)acetamide]
A2 value: A (A2 value of less than 100 nM)

O=C(/C=C1\CCCOc2cc(C(F)(F)F)ccc21)Nc1ccc2c(c1)NC(=O)OC2 [EXAMPLE 12, (E)-2-(8-trifluoromethyl-3,4-dihydrobenzo[b]oxepin-5(2H)-ylidene)-N-(1,4-dihydro-2H-3,1-benzoxadin-2-on-7-yl)acetamide]
A2 value: A (A2 value of less than 100 nM)

COCCN1Cc2ccc(NC(=O)/C=C3\CCCOc4cc(C(F)(F)F)ccc43)cc2NC1=O [EXAMPLE 16, (E)-2-(8-trifluoromethyl-3,4-dihydrobenzo[b]oxepin-5(2H)-ylidene)-N-(3-(2-methoxyethyl)-3,4-dihydro-2(1H)-quinazolinon-7-yl)acetamide]
A2 value: A (A2 value of less than 100 nM)

O=C(/C=C1\CCCOc2cc(C(F)(F)F)ccc21)Nc1ccc2c(c1)NS(=O)(=O)NC2 [EXAMPLE 17, (E)-2-(8-trifluoromethyl-3,4-dihydrobenzo[b]oxepin-5(2H)-ylidene)-N-(3,4-dihydro-2,2-dioxo-1-H-2,1,3-benzothiadiazin-7-yl)acetamide]
A2 value: A (A2 value of less than 100 nM)

O=C(/C=C1\CCCOc2cc(C(F)(F)F)ccc21)Nc1cccc2c1CCC(=O)N2CCO [EXAMPLE 19, (E)-2-(8-trifluoromethyl-3,4-dihydrobenzo[b]oxepin-5(2H)-ylidene)-N-(1-(2-hydroxyethyl)-3,4-dihydro-2(1H)-quinolinon-5-yl)acetamide]
A2 value: A (A2 value of less than 100 nM)

O=C(/C=C1\CCCOc2cc(C(F)(F)F)ccc21)Nc1cccc2c1OCC(=O)N2 [EXAMPLE 20, (E)-2-(8-trifluoromethyl-3,4-dihydrobenzo[b]oxepin-5(2H)-ylidene)-N-(2H-1,4-benzoxazin-3(4H)-on-8-yl)acetamide]
A2 value: A (A2 value of less than 100 nM)

O=C(/C=C1\CCCOc2cc(C(F)(F)F)ccc21)Nc1cccc2c1NCC(=O)N2 [EXAMPLE 21, (E)-2-(8-trifluoromethyl-3,4-dihydrobenzo[b]oxepin-5(2H)-ylidene)-N-(3,4-dihydro-2 (1H)-quinoxalinon-5-yl)acetamide]
A2 value: A (A2 value of less than 100 nM)

CN1CC(=O)Nc2cccc(NC(=O)/C=C3\CCCOc4cc(C(F)(F)F)ccc43)c21 [EXAMPLE 22, (E)-2-(8-trifluoromethyl-3,4-dihydrobenzo[b]oxepin-5(2H)-ylidene)-N-(3,4-dihydro-4-methyl-2 (1H)-quinoxalinon-5-yl)acetamide]
A2 value: A (A2 value of less than 100 nM)

CC1(C)C/C(=C\C(=O)Nc2ccc3c(c2)NC(=O)CC3)c2ccc(C(F)(F)F)cc2O1 [EXAMPLE 24, (E)-2-(7-trifluoromethyl-2,2-dimethylchroman-4-ylidene)-N-(3,4-dihydroquinolin-2(1H)-on-7-yl)acetamide]
A2 value: A (A2 value of less than 100 nM)

CN1C(=O)CCc2ccc(NC(=O)/C=C3\CC(C)(C)Oc4cc(C(F)(F)F)ccc43)cc21 [EXAMPLE 25, (E)-2-(7-trifluoromethyl-2,2-dimethylchroman-4-ylidene)-N-(1-methyl-3,4-dihydro-2(1H)-quinolinon-7-yl)acetamide]
A2 value: A (A2 value of less than 100 nM)

O=C(/C=C1\NCCOc2cc(C(F)(F)F)ccc21)Nc1ccc2c(c1)NC(=O)CC2 [EXAMPLE 27, (Z)-2-(8-trifluoromethyl-3,4-dihydrobenzo[f][1,4]oxazepin-5(2H)-ylidene)-N-(3,4-dihydroquinolin-2(1H)-on-7-yl)acetamide]
A2 value: A (A2 value of less than 100 nM)

O=C(/C=C1\CCCOc2cc(C(F)(F)F)ccc21)Nc1ccc2c(c1)NC(=O)C(CO)C2 (centres unmarked) [EXAMPLE 28, (E)-2-(8-trifluoromethyl-3,4-dihydrobenzo[b]oxepin-5(2H)-ylidene)-N-(3-hydroxymethyl-3,4-dihydro-2(1H)-quinolinon-7-yl)acetamide]
A2 value: A (A2 value of less than 100 nM)

CC1(C)Cc2ccc(NC(=O)/C=C3\CCCOc4cc(C(F)(F)F)ccc43)cc2NC1=O [EXAMPLE 29, (E)-2-(8-trifluoromethyl-3,4-dihydrobenzo[b]oxepin-5(2H)-ylidene)-N-(3,3-dimethyl-3,4-dihydro-2(1H)-quinolinon-7-yl)acetamide]
A2 value: A (A2 value of less than 100 nM)

O=C(/C=C1\CCCOc2cc(C(F)(F)F)ccc21)Nc1ccc2c(c1)NC(=O)C(N1CCOCC1)C2 (centres unmarked) [EXAMPLE 34, (E)-2-(8-trifluoromethyl-3,4-dihydrobenzo[b]oxepin-5(2H)-ylidene)-N-(3-(4-morpholinyl)-3,4-dihydro-2(1H)-quinolinon-7-yl)acetamide]
A2 value: A (A2 value of less than 100 nM)

O=C1CNc2cccc(NC(=O)/C=C3\CCCOc4cc(C(F)(F)F)ccc43)c2C1 [EXAMPLE 36, (E)-2-(8-trifluoromethyl-3,4-dihydrobenzo[b]oxepin-5(2H)-yliden)-N-(3-oxo-1,2,3,4-tetrahydroquinolin-5-yl)acetamide]
A2 value: A (A2 value of less than 100 nM)

O=C(/C=C1\CCCOc2cc(C(F)(F)F)ccc21)Nc1ccc(OCCCO)c2c1CCC(=O)N2 [EXAMPLE 37, (E)-2-(8-trifluoromethyl-3,4-dihydrobenzo[b]oxepin-5(2H)-ylidene)-N-(8-(3-hydroxypropoxy)-3,4-dihydro-2(1H)-quinolinon-5-yl)acetamide]
A2 value: A (A2 value of less than 100 nM)

O=C(/C=C1\CCCOc2cc(C(F)(F)F)ccc21)Nc1ccc2c(c1)NC(=O)N(Cc1ccccc1)C2 [EXAMPLE 38, (E)-2-(8-trifluoromethyl-3,4-dihydrobenzo[b]oxepin-5(2H)-ylidene)-N-(3-benzyl-3,4-dihydro-2(1H)-quinazolinon-7-yl)acetamide]
A2 value: A (A2 value of less than 100 nM)

CN1C(=O)N(Cc2ccccc2)Cc2ccc(NC(=O)/C=C3\CCCOc4cc(C(F)(F)F)ccc43)cc21 [EXAMPLE 39, (E)-2-(8-trifluoromethyl-3,4-dihydrobenzo[b]oxepin-5(2H)-ylidene)-N-(3-benzyl-1-methyl-3,4-dihydro-2(1H)-quinazolinon-7-yl)acetamide]
A2 value: A (A2 value of less than 100 nM)

CC1(CO)Nc2ccc(NC(=O)/C=C3\CCCOc4cc(C(F)(F)F)ccc43)cc2NC1=O (centres unmarked) [EXAMPLE 40, (E)-2-(8-trifluoromethyl-3,4-dihydrobenzo[b]oxepin-5(2H)-ylidene)-N-(3-hydroxymethyl-3-methyl-3,4-dihydro-2(1H)-quinoxalinon-7-yl)acetamide]
A2 value: A (A2 value of less than 100 nM)

CN1c2ccc(NC(=O)/C=C3\CCCOc4cc(C(F)(F)F)ccc43)cc2NC(=O)C1(C)CO (centres unmarked) [EXAMPLE 41, (E)-2-(8-trifluoromethyl-3,4-dihydrobenzo[b]oxepin-5(2H)-ylidene)-N-(3-hydroxymethyl-3,4-dimethyl-3,4-dihydro-2(1H)-quinoxalinon-7-yl)acetamide]
A2 value: A (A2 value of less than 100 nM)

COCCN(CCOC)C1Cc2ccc(NC(=O)/C=C3\CCCOc4cc(C(F)(F)F)ccc43)cc2NC1=O (centres unmarked) [EXAMPLE 44]
A2 value: A (A2 value of less than 100 nM)

COCCN(C)C1Cc2ccc(NC(=O)/C=C3\CCCOc4cc(C(F)(F)F)ccc43)cc2NC1=O (centres unmarked) [EXAMPLE 45, (E)-2-(8-trifluoromethyl-3,4-dihydrobenzo[b]oxepin-5-(2H)-ylidene)-N-(3-(N-methyl-N-(2-methoxyethyl)amino)-3,4-dihydro-2(1H)-quinolinon-7-yl)acetamide]
A2 value: A (A2 value of less than 100 nM)

O=C(/C=C1\CCCOc2cc(C(F)(F)F)ccc21)Nc1ccc2c(c1)NC(=O)C(N1CCCC1)C2 (centres unmarked) [EXAMPLE 46]
A2 value: A (A2 value of less than 100 nM)

O=C(/C=C1\CCCOc2cc(C(F)(F)F)ccc21)Nc1ccc2c(c1)NC(=O)C(N1CC[C@@H](F)C1)C2 (stereo partly drawn) [EXAMPLE 47, (E)-2-(8-trifluoromethyl-3,4-dihydrobenzo[b]oxepin-5(2H)-ylidene)-N-(3-((3S)-fluoropyrrolidin-1-yl)-3,4-dihydro-2(1H)-quinolinon-7-yl)acetamide]
A2 value: A (A2 value of less than 100 nM)
